Results published in ChEMBL document CHEMBL1201862, “PubChem BioAssay data set” (2004).
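Cultured in 96-well plates, cells were exposed to test compound for 48 hours across five concentrations. GI50 = concentration required for 50% inhibition of growth.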 The source made the active and inactive calls. Rule as the data show it: active = GI50 up to about 1.1 µM and inactive = higher.

Tests used:
Test in all cases: NCI tumour cell line growth inhibition, 48 h
ACHN = tested on: ACHN
SNB-19 = tested on: SNB-19
A549 = tested on: A549
NCI-H460 = tested on: NCI-H460
NCI-H23 = tested on: NCI-H23
SN12C = tested on: SN12C
U-251 = tested on: U-251
OVCAR-8 = tested on: OVCAR-8
LOX IMVI = tested on: LOX IMVI
M14 = tested on: M14
SK-MEL-2 = tested on: SK-MEL-2
PC-3 = tested on: PC-3
RXF 393 = tested on: RXF 393
OVCAR-4 = tested on: OVCAR-4
SF-539 = tested on: SF-539
EKVX = tested on: EKVX
NCI-H522 = tested on: NCI-H522
SK-MEL-5 = tested on: SK-MEL-5
K562 = tested on: K562
RPMI-8226 = tested on: RPMI-8226

Measured: GI50

FC(F)(F)c1ccc2nc3n(c2c1)C(c1c(Cl)cccc1Cl)SC3 (centres undefined)
inactive: ACHN 15.9 µM | SNB-19 18.6 µM | A549 15 µM | NCI-H460 14.5 µM | NCI-H23 15.1 µM | SN12C 18.1 µM | U-251 17.4 µM | OVCAR-8 19.6 µM | LOX IMVI 27.6 µM | M14 16 µM | SK-MEL-2 18.2 µM | PC-3 14.9 µM | RXF 393 15.2 µM | OVCAR-4 15.8 µM | SF-539 15.7 µM | EKVX 13.8 µM | NCI-H522 11.9 µM

CC(C)c1cc(C(C)C)c(B(c2ccccc2)c2ccccc2)c(C(C)C)c1Br
inactive: ACHN > 100 µM | SNB-19 > 100 µM | A549 > 100 µM | NCI-H460 > 100 µM | NCI-H23 > 100 µM | SN12C > 100 µM | U-251 > 100 µM | OVCAR-8 > 100 µM | LOX IMVI > 100 µM | M14 > 100 µM | SK-MEL-2 > 100 µM | PC-3 > 100 µM | RXF 393 > 100 µM | OVCAR-4 > 100 µM | SK-MEL-5 > 100 µM | SF-539 > 100 µM | EKVX > 100 µM | K562 > 100 µM | NCI-H522 > 100 µM

CN(CCNC(=O)c1nn(C)c2c1Cc1ccccc1-2)CCNC(=O)c1nn(C)c2c1Cc1ccccc1-2
inactive: ACHN 14.5 µM | SNB-19 15.6 µM | A549 15.8 µM | NCI-H460 16.4 µM | NCI-H23 15.4 µM | SN12C 14.9 µM | U-251 15.6 µM | OVCAR-8 17.5 µM | LOX IMVI 16.4 µM | M14 12.6 µM | SK-MEL-2 14.7 µM | PC-3 18.4 µM | RXF 393 14.8 µM | OVCAR-4 17.6 µM | SK-MEL-5 12.1 µM | SF-539 14.3 µM | EKVX 23.2 µM | K562 12.7 µM | NCI-H522 16.2 µM

CN(C)S(=O)(=O)/N=C/c1cccc(/C=N/S(=O)(=O)N(C)C)c1
inactive: ACHN > 100 µM | SNB-19 > 100 µM | A549 > 100 µM | NCI-H460 > 100 µM | NCI-H23 > 100 µM | SN12C > 100 µM | U-251 > 100 µM | OVCAR-8 51.3 µM | LOX IMVI > 100 µM | M14 > 100 µM | PC-3 > 100 µM | OVCAR-4 > 100 µM | SK-MEL-5 55.1 µM | SF-539 23.9 µM | RPMI-8226 63.1 µM | EKVX 64.9 µM | K562 52.4 µM

Cn1nc(S(N)(=O)=O)s/c1=N/S(=O)(=O)c1ccc(N)cc1
inactive: ACHN > 100 µM | SNB-19 > 100 µM | A549 > 100 µM | NCI-H460 > 100 µM | NCI-H23 > 100 µM | U-251 > 100 µM | OVCAR-8 > 100 µM | M14 > 100 µM | SK-MEL-2 > 100 µM | PC-3 > 100 µM | RXF 393 > 100 µM | OVCAR-4 > 100 µM | SF-539 > 100 µM | RPMI-8226 > 100 µM | EKVX > 100 µM

O=C(Nc1ccc(C(F)(F)F)cc1)NC(F)(F)F
inactive: ACHN > 100 µM | SNB-19 > 100 µM | A549 > 100 µM | NCI-H23 > 100 µM | SN12C > 100 µM | U-251 > 100 µM | OVCAR-8 > 100 µM | LOX IMVI > 100 µM | M14 > 100 µM | SK-MEL-2 > 100 µM | PC-3 > 100 µM | RXF 393 > 100 µM | SK-MEL-5 > 100 µM | SF-539 > 100 µM | RPMI-8226 > 100 µM | EKVX > 100 µM | K562 > 100 µM

COc1cc2nc(-c3cccs3)nc(N3C(c4cc(OC)c(OC)c(OC)c4)=NNC(=O)c4ccccc43)c2cc1OC
inactive: ACHN 44.1 µM | SNB-19 16.4 µM | A549 31.1 µM | NCI-H460 4.82 µM | NCI-H23 14 µM | SN12C 21.2 µM | U-251 15.8 µM | OVCAR-8 3.4 µM | LOX IMVI 15.8 µM | M14 15.3 µM | SK-MEL-2 76 µM | PC-3 29.6 µM | OVCAR-4 13.9 µM | SK-MEL-5 34.9 µM | SF-539 21.8 µM | EKVX 30.8 µM | K562 8.34 µM | NCI-H522 38 µM

COc1ccc(S(=O)(=O)NC(C)C(=O)O)cc1 (centres undefined)
inactive: ACHN > 100 µM | SNB-19 > 100 µM | A549 > 100 µM | NCI-H460 > 100 µM | NCI-H23 > 100 µM | SN12C > 100 µM | U-251 > 100 µM | OVCAR-8 > 100 µM | LOX IMVI > 100 µM | M14 > 100 µM | SK-MEL-2 > 100 µM | RXF 393 > 100 µM | OVCAR-4 > 100 µM | SK-MEL-5 > 100 µM | SF-539 > 100 µM | RPMI-8226 > 100 µM | EKVX > 100 µM | K562 > 100 µM | NCI-H522 > 100 µM

COc1cc(COC(=O)N[C@H](C(=O)O)C(C)(C)C)c([N+](=O)[O-])cc1OC
inactive: ACHN > 100 µM | SNB-19 > 100 µM | A549 > 100 µM | NCI-H460 > 100 µM | NCI-H23 > 100 µM | SN12C > 100 µM | U-251 > 100 µM | OVCAR-8 > 100 µM | M14 > 100 µM | PC-3 > 100 µM | RXF 393 > 100 µM | SK-MEL-5 > 100 µM | SF-539 > 100 µM | RPMI-8226 > 100 µM | EKVX > 100 µM | K562 > 100 µM

COc1ccccc1/N=C(\N)N/N=C/c1c[nH]c2ccccc12
inactive: ACHN 10.3 µM | SNB-19 15.3 µM | A549 13.2 µM | NCI-H460 8.87 µM | NCI-H23 4.79 µM | SN12C 10.4 µM | U-251 11.6 µM | OVCAR-8 13 µM | LOX IMVI 10.4 µM | M14 3.25 µM | SK-MEL-2 6.46 µM | RXF 393 14.1 µM | OVCAR-4 16.8 µM | SK-MEL-5 2.78 µM | SF-539 13.5 µM | RPMI-8226 3.13 µM | EKVX 11 µM | K562 2.22 µM | NCI-H522 3.65 µM

CCCCc1c(N(C)C)c(OC(C)=O)c(-c2cn(C)c3ccccc23)oc1=O
inactive: ACHN 17.9 µM | SNB-19 28.7 µM | A549 24.3 µM | NCI-H460 27 µM | NCI-H23 22.5 µM | SN12C 24.5 µM | U-251 22 µM | M14 16.8 µM | SK-MEL-2 18.7 µM | PC-3 18.6 µM | RXF 393 41 µM | OVCAR-4 33.7 µM | SK-MEL-5 13.8 µM | SF-539 22.3 µM | EKVX 26.1 µM | NCI-H522 20.9 µM

COC(=O)C(C(=O)C(=O)Nc1cccc(OC)c1)c1cnc2ccccc2n1 (centres undefined)
inactive: ACHN > 100 µM | SNB-19 > 100 µM | A549 66.8 µM | NCI-H460 > 100 µM | NCI-H23 > 100 µM | SN12C > 100 µM | U-251 > 100 µM | OVCAR-8 > 100 µM | LOX IMVI > 100 µM | M14 > 100 µM | SK-MEL-2 > 100 µM | RXF 393 46.1 µM | OVCAR-4 > 100 µM | SK-MEL-5 > 100 µM | SF-539 > 100 µM | RPMI-8226 > 100 µM | EKVX > 100 µM | K562 > 100 µM | NCI-H522 > 100 µM

CC(C)(CO)CNc1nc(N)nc(Cl)c1N
inactive: ACHN > 100 µM | SNB-19 > 100 µM | A549 > 100 µM | NCI-H460 > 100 µM | NCI-H23 > 100 µM | SN12C > 100 µM | U-251 > 100 µM | OVCAR-8 > 100 µM | LOX IMVI > 100 µM | SK-MEL-2 > 100 µM | PC-3 > 100 µM | RXF 393 > 100 µM | OVCAR-4 > 100 µM | SK-MEL-5 95.1 µM | SF-539 > 100 µM | EKVX > 100 µM | K562 > 100 µM | NCI-H522 > 100 µM

CC(=O)Nc1ccc(C2CC(c3ccc([N+](=O)[O-])cc3)=Nc3ccccc3[S+]2[O-])cc1 (centres undefined)
inactive: ACHN 20.6 µM | SNB-19 36.8 µM | A549 38.4 µM | NCI-H460 23.3 µM | NCI-H23 21.5 µM | SN12C 24.5 µM | OVCAR-8 30.5 µM | LOX IMVI 14.7 µM | M14 27.9 µM | SK-MEL-2 27.4 µM | RXF 393 17.4 µM | OVCAR-4 18.9 µM | SK-MEL-5 19.6 µM | SF-539 24.6 µM | RPMI-8226 4.36 µM | EKVX 36.5 µM | K562 4.58 µM | NCI-H522 17.3 µM

Cc1cc(S(=O)(=O)[N-]/C(=N/S(=O)(=O)c2ccc(Cl)cc2)[n+]2ccc(N(C)C)cc2)c(SCC(=O)O)cc1Cl
inactive: ACHN > 100 µM | SNB-19 > 100 µM | A549 > 100 µM | NCI-H460 42.8 µM | NCI-H23 > 100 µM | SN12C > 100 µM | U-251 > 100 µM | OVCAR-8 > 100 µM | LOX IMVI > 100 µM | M14 25.2 µM | PC-3 69.5 µM | RXF 393 59.4 µM | OVCAR-4 34.8 µM | SF-539 35.5 µM | RPMI-8226 71.1 µM | EKVX 46.8 µM | K562 37.8 µM
